Results from US12564638B2 (SHANGHAITECH UNIVERSITY, priority 2019, dated 2026).
Like-named read-outs stand apart in the source and are kept apart here.

Columns and labels:
Format in all cases: cell-based
[1] = tested on: PC9 cells (EGFR Exon 19 del, non-small cell lung cancer cells); assay: Cell viability assay (WST/CCK8), PC9 cells; details: Homo sapiens, PC-9, 72 hours, read-out: IC50 (half inhibitory concentration)
Procedure, shortened: (§1)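 Plated 3 000 cells/well in complete RPMI1640 the day before dosing; controls were DMSO (negative) and EGFR TKIs (positive).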

[2] = tested on: BT474 cells (HER2 positive breast cancer cells); assay: Cell viability assay (CCK8), BT474 cells; details: for IC50: Homo sapiens, BT-474, Table 10, BT474, 72 hours, read-out: IC50 (half inhibitory concentration)
Procedure, shortened: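 HER2-overexpressing BT474 cells in RPMI1640 were exposed to compounds for 72 hours over 10 concentrations (3-fold dilution, top 10 μM). Viability was measured with CCK8 reagent against a DMSO control, and IC50 was taken from growth inhibition curves.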

[3] = tested on: PC9 DCT (Del19+T790M+C797S) cells; assay: Cell viability assay, PC9 cells with EGFR triple mutation; details: Homo sapiens, PC-9; Table 9; PC9 (Del + T790M + C797S), EGFR triple mutations; read-out: IC50 (half inhibitory concentration)
Text: Construction of EGFR triple mutant cell line PC9 DCT (Dell9+T790M+C797S): The cDNA expressing human EGFR was cloned into pLVX vector, and exon 19 deletion mutation (746-750) and T790M mutation were introduced by point mutation and C797S mutation. Transferred into PC9 cells by lentiviral packaging. Cells stably expressing EGFR triple mutations were obtained by fluorescence screening.
The cDNA sequence expressing human EGFR was cloned into a pLVX vector (GFP^+), and then introduce the EGFR exon 19 deletion (746-750), exon 20 T790M and C797S mutations by were generated by site-directed mutagenesis. The PC9 cells were infected with lentivirus containing the indicated EGFR mutations, and the cells stably expressing EGFR triple mutation were obtained by fluorescence screening.
All of the half inhibitory concentrations (IC50) of these compounds of the present invention were determined with WST reagent from Fuyuan Biotec Company. The specific experiment procedures are as follows: Cancer cells were planted in 96-well-plate at the density of 3 000 cells per well with 100 μL RPMI1640 completed culture medium. In the next day, compounds with indicated concentrations were added to the cells, DMSO was used as the negative control and the EGFR TKIs were used to treat cells as the positive groups. After 72 hours drug treatment, cell viability was measured by using the WST reagent following the instructions. The growth inhibition curve of the compounds on cells were plotted by Prism GraphPad, and the compounds IC50 calculated from it.
The cell viability assays were taken to determine the anti-tumor activity of these indicated compounds in PC9 cells, which overexpressed Exon 19del+T790M+C797S triple mutant EGFR.

[4] = tested on: HCC827 cells (EGFR Exon19 del, non-small cell lung cancer cells); assay: Cell viability assay (WST/CCK8), HCC827 cells; details: Homo sapiens, HCC827, 72 h, HCC827 (Exon19 Del), 72 hours, read-out: IC50 (half inhibitory concentration)
Procedure, shortened: as §1

[5] = tested on: PC9BracA1 (EGFR Exon 19 del+T790M, non-small cell lung cancer cells); assay: Cell viability assay (WST/CCK8), PC9Brac1 cells; details: read-out: IC50 (half inhibitory concentration)
Procedure, shortened: (§2)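 Cells seeded at 3 000 per well in RPMI1640 complete medium, dosed next day with compounds at indicated concentrations (DMSO negative control, EGFR TKIs as positive control).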

[6] = biological target: T1, EGFR (L858R+T790M) in H1975 cells (Homo sapiens, UniProt P00533, L858R/T790M); assay: Western blot of EGFR protein level (degradation), H1975 cells; details: 16 hours; for EGFR degradation (EGFR level, western blot): H1975 cells, 1, 10, 50, 100, 500 nM; for DC50: H1975 cells, western blot
T1 construct: determined in H1975 cells with the EGFR L858R+T790M mutation; endogenous in cells; host or cells: H1975
Experimental: Cancer cells were planted in 12-well-plate at the density of 0.15 million cells per well with 1 mL RPMI1640 completed culture medium. Compounds with different concentrations (DMSO as a solution system, and 1 μL of compounds of different concentrations was added to 1 mL of the cell culture medium) were added to the cells planted one day before. 16 hours after treated, the medium was discarded and the cells were washed with precooled PBS. The cells were placed on ice and treated with RIPA protein lysis buffer containing halt protease and phosphatase inhibitor. After centrifugation at 10000 rpm at 4° C. for 10 minutes, the supernatant was collected. The same amount of proteins were added into 4×SDS loading buffer and heated at 95° C. for 5 minutes for denaturation, and the samples were stored at −20° C. after denaturation, or directly conducted protein electrophoresis. The 4-20% gradient preformed Electrophoretic gels were purchased from Kingsy. The electrophoresis tank and related components were purchased from Bio-rad company, and the electrophoresis condition was isobaric 120V for 2 hours. PVDF membrane was used for the transmembrane, and the whole transmembrane process was carried out on ice with a constant current of 0.4 amperes for an hour. The membrane was blocked with 5% skimmed milk dilution with TBST buffer. Refer to the corresponding antibody instructions for the specific steps of immunoblotting.
The degradation efficacy of the dacomitinib-based compounds on EGFR was determined in HCC827 and H1975 cell lines, which harboring EGFR Exon 19del and EGFR L858R+T790M mutations respectively.
In FIG. 2, concentration-dependent degradation assays were performed on non-small cell lung cancer cell line H1975 (T790M-mutant cell line, the most common mutation type of first-generation EGFR inhibitors). […] The DC50 of compounds SIAIS262032 and SIAIS262037 are both about 50 nM, which provides great potential for drug development to overcome drug resistance caused by EGFR T790M mutation.
The degradation efficacy of the canertinib-based compounds on EGFR was determined in H1975 cells with the EGFR L858R+T790M mutation.
The H1975 cells were treated with the PROTADs with different concentrations (1, 10, 50, 100, 500 nM) for 16 hours, and then the western blot assay was taken to estimate the EGFR levels of the cell lysates in each group. […] The DC50 of SIAIS262125 and SIAIS262182 are both less than 10 nM, much better than canertinib, which provides great potential for drug development to overcome drug resistance caused by EGFR T790M mutation.

[7] = tested on: H1975 (EGFR T790M+L858R mutation, non-small cell lung cancer cell line); assay: Cell viability assay (WST/CCK8), H1975 cells; details: Homo sapiens, NCI-H1975, H1975 (L858R + T790M), read-out: IC50 (half inhibitory concentration)
Procedure, shortened: as §2

[8] = Table 3, poziotinib-based compounds, PC9 (Exon 19 Del), WST (CCK8)
[9] = Table 3, poziotinib-based compounds, WST (CCK8)
[10] = PC9Brac1 (Ex19del + T790M), 72 hours, WST
[11] = Table 7, canertinib-based compounds, PC9Brca1 (Ex19del + T790M)
[12] = Table 7, canertinib-based compounds
[13] = Table 6, canertinib-based compounds, PC9 (Exon19 Del), WST
[14] = Table 6, canertinib-based compounds, WST

T1 sequence (P00533 25-1210 T790M/L858R): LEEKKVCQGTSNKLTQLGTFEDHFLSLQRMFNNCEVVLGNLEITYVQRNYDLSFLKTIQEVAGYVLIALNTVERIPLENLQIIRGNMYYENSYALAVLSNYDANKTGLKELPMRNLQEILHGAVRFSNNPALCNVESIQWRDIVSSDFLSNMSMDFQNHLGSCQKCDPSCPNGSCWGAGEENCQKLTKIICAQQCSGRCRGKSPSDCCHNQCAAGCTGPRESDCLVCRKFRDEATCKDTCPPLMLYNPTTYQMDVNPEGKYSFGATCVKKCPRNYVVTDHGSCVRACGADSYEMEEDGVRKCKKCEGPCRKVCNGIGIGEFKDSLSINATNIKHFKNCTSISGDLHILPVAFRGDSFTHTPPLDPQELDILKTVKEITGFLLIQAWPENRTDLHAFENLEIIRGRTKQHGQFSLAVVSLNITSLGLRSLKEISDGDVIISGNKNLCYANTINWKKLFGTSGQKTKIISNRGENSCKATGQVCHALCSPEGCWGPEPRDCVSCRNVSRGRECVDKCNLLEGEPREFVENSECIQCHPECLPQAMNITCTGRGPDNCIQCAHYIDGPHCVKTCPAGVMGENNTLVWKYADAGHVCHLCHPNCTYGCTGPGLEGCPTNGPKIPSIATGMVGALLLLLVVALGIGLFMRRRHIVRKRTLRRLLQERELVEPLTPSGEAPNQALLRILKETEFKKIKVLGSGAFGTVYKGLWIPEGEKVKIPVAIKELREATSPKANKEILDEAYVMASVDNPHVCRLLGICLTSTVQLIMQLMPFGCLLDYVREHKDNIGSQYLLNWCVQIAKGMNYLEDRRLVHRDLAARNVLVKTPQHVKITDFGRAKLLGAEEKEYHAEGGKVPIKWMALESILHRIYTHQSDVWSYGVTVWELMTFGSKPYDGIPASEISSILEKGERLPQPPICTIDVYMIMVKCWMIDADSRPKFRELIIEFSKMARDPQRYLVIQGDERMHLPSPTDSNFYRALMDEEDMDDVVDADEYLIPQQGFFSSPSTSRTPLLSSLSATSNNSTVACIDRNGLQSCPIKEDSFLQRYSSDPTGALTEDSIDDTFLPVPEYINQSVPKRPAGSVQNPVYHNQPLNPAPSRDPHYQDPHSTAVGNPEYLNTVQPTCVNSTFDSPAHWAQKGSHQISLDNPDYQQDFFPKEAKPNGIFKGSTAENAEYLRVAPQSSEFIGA

IC50 [1, 8] | IC50 [2] | IC50 [3] | IC50 [4, 9] | IC50 [5, 10] | IC50 ([1]; PC9 (Exon19 Del), WST (CCK8)) | IC50 ([4]; WST (CCK8)) | EGFR degradation (EGFR level, western blot) [6] | DC50 [6] | IC50 ([7]; 72 hours, WST) | IC50 [5, 11] | IC50 [7, 12] | IC50 [1, 13] | IC50 [4, 14] | Structure (SMILES) | antineoplastic activity (in words) ([2]; BT474 cells, 72 hours)
38 nM | 35.9 nM | 2.4 nM | 8.2 nM | – | – | – | – | – | – | – | – | – | – | COc1cc2ncnc(Nc3ccc(Cl)c(Cl)c3F)c2cc1OC1CCN(C(=O)CNc2cccc3c2C(=O)N(C2CCC(=O)NC2=O)C3=O)CC1 (stereo not shown) [SIAIS219177, 4-((2-(4-((4-((3,4-dichloro-2-fluorophenyl)amino)-7-methoxyquinazolin-6-yl)oxy)piperidin-1-yl)-2-oxoethyl)amino)-2-(2,6-dioxopiperidin-3-yl)isoindoline-1,3-dione] | –
130 nM | 87 nM | 4.7 nM | 46 nM | – | – | – | – | – | – | – | – | – | – | COc1cc2ncnc(Nc3ccc(Cl)c(Cl)c3F)c2cc1OC1CCN(C(=O)CCSc2cccc3c2C(=O)N(C2CCC(=O)NC2=O)C3=O)CC1 (stereo not shown) [SIAIS249015, 4-((3-(4-((4-((3,4-dichloro-2-fluorophenyl)amino)-7-methoxyquinazolin-6-yl)oxy)piperidin-1-yl)-3-oxopropyl)thio)-2-(2,6-dioxopiperidin-3-yl)isoindoline-1,3-dione] | –
– | – | – | – | 438 nM | 43.5 nM | 3.3 nM | obvious EGFR degradation efficacy | ~50 nM | – | – | – | – | – | COc1cc2ncnc(Nc3ccc(F)c(Cl)c3)c2cc1NC(=O)/C=C/CN1CCC(N2CCN(C(=O)CCCCCSc3cccc4c3C(=O)N(C3CCC(=O)NC3=O)C4=O)CC2)CC1 (stereo not shown) [SIAIS262032, (E)-N-(4-((3-chloro-4-fluorophenyl)amino)-7-methoxyquinazolin-6-yl)-4-(4-(4-(6-((2-(2,6-dioxopiperidin-3-yl)-1,3-dioxoisoindolin-4-yl)thio)hexanoyl)piperazin-1-yl)piperidin-1-yl)but-2-enamide] | –
– | 2.1 nM | – | – | 491 nM | 6.1 nM | 2.2 nM | obvious EGFR degradation efficacy | – | 514 nM | – | – | – | – | COc1cc2ncnc(Nc3ccc(F)c(Cl)c3)c2cc1NC(=O)/C=C/CN1CCC(N2CCN(C(=O)CCCCCSc3cccc4c3CN(C3CCC(=O)NC3=O)C4=O)CC2)CC1 (stereo not shown) [SIAIS262035, (E)-N-(4-((3-chloro-4-fluorophenyl)amino)-7-methoxyquinazolin-6-yl)-4-(4-(4-(6-((2-(2,6-dioxopiperidin-3-yl)-1-oxoisoindolin-4-yl)thio)hexanoyl)piperazin-1-yl)piperidin-1-yl)but-2-enamide] | –
– | 0.9 nM | – | – | – | 2.1 nM | 1.6 nM | obvious EGFR degradation efficacy | ~50 nM | – | – | – | – | – | COc1cc2ncnc(Nc3ccc(F)c(Cl)c3)c2cc1NC(=O)/C=C/CN1CCC(N2CCN(C(=O)CCCCCCNc3cccc4c3C(=O)N(C3CCC(=O)NC3=O)C4=O)CC2)CC1 (stereo not shown) [SIAIS262037, (E)-N-(4-((3-chloro-4-fluorophenyl)amino)-7-methoxyquinazolin-6-yl)-4-(4-(4-(7-((2-(2,6-dioxopiperidin-3-yl)-1,3-dioxoisoindolin-4-yl)amino)heptanoyl)piperazin-1-yl)piperidin-1-yl)but-2-enamide] | –
– | 9.6 nM | – | – | – | – | 0.3 nM | obvious EGFR degradation efficacy | – | < 25 nM | 79 nM | 15 nM | 1.3 nM | 0.3 nM | C=CC(=O)Nc1cc2c(Nc3ccc(F)c(Cl)c3)ncnc2cc1OCCCN1CCN(C(=O)CCCCCNc2cccc3c2C(=O)N(C2CCC(=O)NC2=O)C3=O)CC1 (stereo not shown) [SIAIS262125, N-(4-((3-chloro-4-fluorophenyl)amino)-7-(3-(4-(6-((2-(2,6-dioxopiperidin-3-yl)-1,3-dioxoisoindolin-4-yl)amino)hexanoyl)piperazin-1-yl)propoxy)quinazolin-6-yl)acrylamide] | better antineoplastic activity than the relative EGFR TKIs
– | 4.4 nM | – | – | – | – | – | obvious EGFR degradation efficacy | – | – | 570 nM | 24 nM | 10.2 nM | 4.2 nM | C=CC(=O)Nc1cc2c(Nc3ccc(F)c(Cl)c3)ncnc2cc1OCCCN1CCC(N2CCN(CCCCCCSc3cccc4c3CN(C3CCC(=O)NC3=O)C4=O)CC2)CC1 (stereo not shown) [SIAIS262180, N-(4-((3-chloro-4-fluorophenyl)amino)-7-(3-(4-(4-(6-((2-(2,6-dioxopiperidin-3-yl)-1-oxoisoindolin-4-yl)thio)hexyl)piperazin-1-yl)piperidin-1-yl)propoxy)quinazolin-6-yl)acrylamide] | –
– | 5 nM | – | – | – | – | – | obvious EGFR degradation efficacy | – | < 25 nM | 192 nM | 12 nM | 11.1 nM | 1.4 nM | C=CC(=O)Nc1cc2c(Nc3ccc(F)c(Cl)c3)ncnc2cc1OCCCN1CCN(CCCCCCNc2cccc3c2C(=O)N(C2CCC(=O)NC2=O)C3=O)CC1 (stereo not shown) [SIAIS262182, N-(4-((3-chloro-4-fluorophenyl)amino)-7-(3-(4-(6-((2-(2,6-dioxopiperidin-3-yl)-1,3-dioxoisoindolin-4-yl)amino)hexyl)piperazin-1-yl)propoxy)quinazolin-6-yl)acrylamide] | –
